US11299503B2, “Compound, coating composition comprising the same, organic light emitting device using the same and method for manufacturing the same” (LG Chem, Ltd., priority 2018, dated 2022)

Experiment: Solubility in toluene, precipitate check by tyndall effect
Type: physicochemical
Conditions: toluene 100 ml, left 30 minutes at room temperature (25° C.), dissolved amount measured
Protocol: In addition, Compound BD12, Compound BD24, Compound BD30, Compound BD38 and Compound C used in Example 1 to Example 4 and Comparative Example 1 were each introduced to a solvent (toluene 100 ml), and then left unattended for 30 minutes at room temperature (25° C.). After that, laser was passed through the solution to determine whether precipitates were formed through a […] effect, and the dissolved amount was measured.

Q: With `c1ccc([Si](c2ccccc2)(c2ccccc2)c2cccc(-c3ccccc3N(c3cccc([Si](c4ccccc4)(c4ccccc4)c4ccccc4)c3)c3cc4c5ccccc5c(N(c5cccc([Si](c6ccccc6)(c6ccccc6)c6ccccc6)c5)c5ccccc5-c5cccc([Si](c6ccccc6)(c6ccccc6)c6ccccc6)c5)cc4c4ccccc34)c2)cc1` [BD12] as the molecule, how does the Solubility read?
A: 10 wt %

Q: Which Solubility does the source give for `c1ccc([Si](c2ccccc2)(c2ccccc2)c2cccc(-c3ccccc3N(c3ccc(-c4cc5c6ccccc6c(-c6ccc(N(c7cccc([Si](c8ccccc8)(c8ccccc8)c8ccccc8)c7)c7ccccc7-c7cccc([Si](c8ccccc8)(c8ccccc8)c8ccccc8)c7)cc6)cc5c5ccccc45)cc3)c3cccc([Si](c4ccccc4)(c4ccccc4)c4ccccc4)c3)c2)cc1` [BD24] here?
A: 10 wt %

Q: For `CC(C)c1ccc([Si](c2ccc(C(C)C)cc2)(c2ccc(C(C)C)cc2)c2ccc(N(c3cccc(-c4cccc([Si](c5ccc(C(C)C)cc5)(c5ccc(C(C)C)cc5)c5ccc(C(C)C)cc5)c4)c3)c3cc4c5ccccc5c(N(c5ccc([Si](c6ccc(C(C)C)cc6)(c6ccc(C(C)C)cc6)c6ccc(C(C)C)cc6)cc5)c5cccc(-c6cccc([Si](c7ccc(C(C)C)cc7)(c7ccc(C(C)C)cc7)c7ccc(C(C)C)cc7)c6)c5)cc4c4ccccc34)cc2)cc1` [BD30], which Solubility is on record?
A: 15 wt %

Q: For `CC(C)c1ccc([Si](c2ccc(C(C)C)cc2)(c2ccc(C(C)C)cc2)c2ccc(N(c3ccc(-c4cc5c6ccccc6c(-c6ccc(N(c7ccc([Si](c8ccc(C(C)C)cc8)(c8ccc(C(C)C)cc8)c8ccc(C(C)C)cc8)cc7)c7cccc(-c8cccc([Si](c9ccc(C(C)C)cc9)(c9ccc(C(C)C)cc9)c9ccc(C(C)C)cc9)c8)c7)cc6)cc5c5ccccc45)cc3)c3cccc(-c4cccc([Si](c5ccc(C(C)C)cc5)(c5ccc(C(C)C)cc5)c5ccc(C(C)C)cc5)c4)c3)cc2)cc1` [BD38], which Solubility is on record?
A: 15 wt %

Q: For `c1ccc(-c2ccc(N(c3ccccc3)c3cc4c5ccccc5c(N(c5ccccc5)c5ccc(-c6ccccc6)cc5)cc4c4ccccc34)cc2)cc1` [Compound C, reference compound], which Solubility is on record?
A: 0.1 wt %
